Results published in the supplement of paper PMC11061612.

Key:
[1] = compound: O=C(Nc1ccc2[nH]nc(-c3ccncc3)c2c1)[C@@H]1CCN(CC(=O)N2CCN(c3ccc(-c4ncccn4)cc3)CC2)C1; settings: max 5 µM
Method in brief: (§1)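 Cancer cell lines in 1536-well plates (7.5 μl DMEM/F12 or RPMI, 10% FBS) were held 24 hours at 37°C and 5% CO2 and then dosed for 72 hours at a final DMSO of typically 0.2%. Viability was taken from CellTiter-Glo 2.0 luminescence, scaled between blank-well and DMSO-well means. Curves were fitted as two-parameter logistic models with a non-linear mixed effects model, from which the single-agent IC50 was taken.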

Paclitaxel = compound: CC(=O)O[C@H]1C(=O)[C@@]2(C)[C@H]([C@H](OC(=O)c3ccccc3)[C@]3(O)C[C@H](OC(=O)[C@H](O)[C@@H](NC(=O)c4ccccc4)c4ccccc4)C(C)=C1C3(C)C)[C@]1(OC(C)=O)CO[C@@H]1C[C@@H]2O [Paclitaxel]; settings: max 3 µM
Method in brief: as §1

Taselisib = compound: Cc1nc(-c2cn3c(n2)-c2ccc(-c4cnn(C(C)(C)C(N)=O)c4)cc2OCC3)n(C(C)C)n1 [Taselisib]; settings: max 10 µM
Method in brief: as §1

Olaparib = compound: O=C(c1cc(Cc2n[nH]c(=O)c3ccccc23)ccc1F)N1CCN(C(=O)C2CC2)CC1 [Olaparib]; settings: max 10 µM
Method in brief: as §1

Etoposide = compound: COc1cc([C@@H]2c3cc4c(cc3[C@@H](O[C@@H]3O[C@@H]5CO[C@@H](C)O[C@H]5[C@H](O)[C@H]3O)[C@H]3COC(=O)[C@H]23)OCO4)cc(OC)c1O [Etoposide]; settings: max 10 µM
Method in brief: as §1

AZD1775 = compound: C=CCn1c(=O)c2cnc(Nc3ccc(N4CCN(C)CC4)cc3)nc2n1-c1cccc(C(C)(C)O)n1 [AZD1775]
Method in brief: as §1

AZD1390 = compound: CC(C)n1c(=O)n(C)c2cnc3cc(F)c(-c4ccc(OCCCN5CCCCC5)nc4)cc3c21 [AZD1390]; settings: max 0.3 µM
Method in brief: as §1

Gefitinib = compound: COc1cc2ncnc(Nc3ccc(F)c(Cl)c3)c2cc1OCCCN1CCOCC1 [Gefitinib]; settings: max 10 µM
Method in brief: as §1

SRA737 = compound: N#Cc1cnc(Nc2cc(NC[C@H]3CNCCO3)c(C(F)(F)F)cn2)cn1 [SRA737]; settings: max 10 µM
Method in brief: as §1

Trametinib = compound: CC(=O)Nc1cccc(-n2c(=O)n(C3CC3)c(=O)c3c(Nc4ccc(I)cc4F)n(C)c(=O)c(C)c32)c1 [Trametinib]; settings: max 1 µM
Method in brief: as §1

SN-38 = compound: CCc1c2c(nc3ccc(O)cc13)-c1cc3c(c(=O)n1C2)COC(=O)[C@]3(O)CC [SN-38]; settings: max 0.3 µM
Method in brief: as §1

AZD5363 = compound: C1CN(CCC1(C(=O)N[C@@H](CCO)C2=CC=C(C=C2)Cl)N)C3=NC=NC4=C3C=CN4 [AZD5363]; settings: max 10 µM
Method in brief: as §1

Carboplatin = compound: C1CC(C1)(C(=O)[O-])C(=O)[O-].N.N.[Pt+2] [Carboplatin]; settings: max 10 µM
Method in brief: as §1

Alisertib = compound: COc1cc(Nc2ncc3c(n2)-c2ccc(Cl)cc2C(c2c(F)cccc2OC)=NC3)ccc1C(=O)O [Alisertib]; settings: max 10 µM
Method in brief: as §1

Savolitinib = compound: C[C@@H](c1ccc2nccn2c1)n1nnc2ncc(-c3cnn(C)c3)nc21 [Savolitinib]; settings: max 1 µM
Method in brief: as §1

Palbociclib = compound: CC(=O)c1c(C)c2cnc(Nc3ccc(N4CCNCC4)cn3)nc2n(C2CCCC2)c1=O [Palbociclib]; settings: max 10 µM
Method in brief: as §1

MK-2206 = compound: NC1(c2ccc(-c3nc4ccn5c(=O)[nH]nc5c4cc3-c3ccccc3)cc2)CCC1 [MK-2206]; settings: max 10 µM
Method in brief: as §1

5-Fluorouracil = compound: O=c1[nH]cc(F)c(=O)[nH]1 [5-Fluorouracil]; settings: max 20 µM
Method in brief: as §1

Crizotinib = compound: C[C@@H](Oc1cc(-c2cnn(C3CCNCC3)c2)cnc1N)c1c(Cl)ccc(F)c1Cl [Crizotinib]; settings: max 10 µM
Method in brief: as §1

Lapatinib = compound: CS(=O)(=O)CCNCc1ccc(-c2ccc3ncnc(Nc4ccc(OCc5cccc(F)c5)c(Cl)c4)c3c2)o1 [Lapatinib]; settings: max 10 µM
Method in brief: as §1

AZD7648 = compound: Cc1cc2ncnn2cc1Nc1ncc2c(n1)n(C1CCOCC1)c(=O)n2C [AZD7648]; settings: max 10 µM
Method in brief: as §1

AZD8186 = compound: C[C@@H](Nc1cc(F)cc(F)c1)c1cc(C(=O)N(C)C)cc2c(=O)cc(N3CCOCC3)oc12 [AZD8186]; settings: max 10 µM
Method in brief: as §1

AZD2811 = compound: CCN(CCO)CCCOc1ccc2c(Nc3cc(CC(=O)Nc4cccc(F)c4)[nH]n3)ncnc2c1 [AZD2811]; settings: max 1 µM
Method in brief: as §1

Venetoclax = compound: CC1(C)CCC(CN2CCN(c3ccc(C(=O)NS(=O)(=O)c4ccc(NCC5CCOCC5)c([N+](=O)[O-])c4)c(Oc4cnc5[nH]ccc5c4)c3)CC2)=C(c2ccc(Cl)cc2)C1 [Venetoclax]; settings: max 1 µM
Method in brief: as §1

AZD0156 = compound: CN(C)CCCOc1ccc(-c2ccc3ncc4c(c3c2)n(C2CCOCC2)c(=O)n4C)cn1 [AZD0156]
Method in brief: as §1

Gemcitabine = compound: Nc1ccn([C@@H]2O[C@H](CO)[C@@H](O)C2(F)F)c(=O)n1 [Gemcitabine]; settings: max 0.3 µM
Method in brief: as §1

AZD6738 = compound: C[C@@H]1COCCN1C2=NC(=NC(=C2)C3(CC3)[S@](=N)(=O)C)C4=C5C=CNC5=NC=C4 [AZD6738]; settings: max 10 µM
Method in brief: as §1

AZD5153 = compound: COc1nnc2ccc(N3CCC(c4ccc(OCCN5CCN(C)C(=O)[C@H]5C)cc4)CC3)nn12 [AZD5153]; settings: max 1 µM
Method in brief: as §1

Prexasertib = compound: COc1cccc(OCCCN)c1-c1cc(Nc2cnc(C#N)cn2)n[nH]1 [Prexasertib]; settings: max 1 µM
Method in brief: as §1

Selumetinib = compound: Cn1cnc2c(F)c(Nc3ccc(Br)cc3Cl)c(C(=O)NOCCO)cc21 [Selumetinib]; settings: max 10 µM
Method in brief: as §1

AZD5991 = compound: Cc1c2c(nn1C)CSCc1cc(n(C)n1)CSc1cc(c3ccccc3c1)OCCCc1c(C(=O)O)n(C)c3c-2c(Cl)ccc13 [AZD5991]; settings: max 1 µM
Method in brief: as §1

Dasatinib = compound: CC1=C(C(=CC=C1)Cl)NC(=O)C2=CN=C(S2)NC3=CC(=NC(=N3)C)N4CCN(CC4)CCO [Dasatinib]; settings: max 2 µM
Method in brief: as §1

SG3199 = compound: CC1=CN2[C@@H](C1)C=NC3=CC(=C(C=C3C2=O)OC)OCCCCCOC4=C(C=C5C(=C4)N=C[C@@H]6CC(=CN6C5=O)C)OC [SG3199]; settings: max 0.001 µM
Method in brief: as §1

Doxorubicin = compound: COc1cccc2c1C(=O)c1c(O)c3c(c(O)c1C2=O)C[C@@](O)(C(=O)CO)C[C@@H]3O[C@H]1C[C@H](N)[C@H](O)[C@H](C)O1 [Doxorubicin]; settings: max 1 µM
Method in brief: as §1

AZD4320 = compound: CN(CC[C@H](CSC1=CC=CC=C1)NC2=C(C=C(C=C2)S(=O)(=O)NC(=O)C3=CC=C(C=C3)N4CCC(CC4)[C@H](C5=CC=CC=C5C6=CC=C(C=C6)Cl)O)S(=O)(=O)C(F)(F)F)CCO [AZD4320]; settings: max 1 µM
Method in brief: as §1

Cell Line	IC50, cell viability 72 h [1]	IC50, cell viability 72 h (Paclitaxel)	IC50, cell viability 72 h (Taselisib)	IC50, cell viability 72 h (Olaparib)	IC50, cell viability 72 h (Etoposide)	IC50, cell viability 72 h (AZD1775; max 3 µM)	IC50, cell viability 72 h (AZD1390)	IC50, cell viability 72 h (Gefitinib)	IC50, cell viability 72 h (SRA737)	IC50, cell viability 72 h (Trametinib)	IC50, cell viability 72 h (SN-38)	IC50, cell viability 72 h (AZD5363)	IC50, cell viability 72 h (Carboplatin)	IC50, cell viability 72 h (Alisertib)	IC50, cell viability 72 h (Savolitinib)	IC50, cell viability 72 h (Palbociclib)	IC50, cell viability 72 h (MK-2206)	IC50, cell viability 72 h (5-Fluorouracil)	IC50, cell viability 72 h (Crizotinib)	IC50, cell viability 72 h (Lapatinib)	IC50, cell viability 72 h (AZD7648)	IC50, cell viability 72 h (AZD8186)	IC50, cell viability 72 h (AZD2811)	IC50, cell viability 72 h (Venetoclax)	IC50, cell viability 72 h (AZD0156; max 3 µM)	IC50, cell viability 72 h (Gemcitabine)	IC50, cell viability 72 h (AZD6738)	IC50, cell viability 72 h (AZD5153)	IC50, cell viability 72 h (Prexasertib)	IC50, cell viability 72 h (Selumetinib)	IC50, cell viability 72 h (AZD5991)	IC50, cell viability 72 h (Dasatinib)	IC50, cell viability 72 h (SG3199)	IC50, cell viability 72 h (Doxorubicin)	IC50, cell viability 72 h (AZD4320)	IC50, cell viability 72 h (AZD1775; max 1 µM)	IC50, cell viability 72 h (AZD0156; max 1 µM)
EW-7 (Ewing's Sarcoma)	> 5000 nM	40.8 nM	155 nM	> 10000 nM	253 nM	308 nM	> 300 nM	> 10000 nM	908 nM	> 1000 nM	5.52 nM	4500 nM	> 10000 nM	2150 nM	> 1000 nM	> 10000 nM	5630 nM	> 20000 nM	3460 nM	> 10000 nM	9440 nM	> 10000 nM	> 1000 nM	> 1000 nM	> 3000 nM	4.7 nM	1160 nM	> 1000 nM	5.28 nM	> 10000 nM	> 1000 nM	> 2000 nM	> 1 nM	101 nM	943 nM		
KP-N-YN (Neuroblastoma)	> 5000 nM	110 nM	5580 nM	> 10000 nM	> 10000 nM		> 300 nM	> 10000 nM	751 nM	> 1000 nM	35 nM	> 10000 nM	> 10000 nM	1090 nM	> 1000 nM	> 10000 nM	> 10000 nM	> 20000 nM	> 10000 nM	> 10000 nM	> 10000 nM	> 10000 nM	402 nM	344 nM			751 nM	> 1000 nM	5.36 nM	> 10000 nM	> 1000 nM	> 2000 nM	> 1 nM	749 nM	49.2 nM	307 nM	> 1000 nM
MKN1 (Gastric Carcinoma)	> 5000 nM	13.4 nM	573 nM	> 10000 nM	1250 nM	640 nM	> 300 nM	> 10000 nM	4850 nM	> 1000 nM	124 nM	> 10000 nM	> 10000 nM		> 1000 nM	> 10000 nM	> 10000 nM	> 20000 nM	> 10000 nM	> 10000 nM	> 10000 nM	> 10000 nM	> 1000 nM	> 1000 nM	> 3000 nM	161 nM	2870 nM	343 nM		> 10000 nM	> 1000 nM	560 nM			> 1000 nM		
